Values quoted from earlier work in patent publication US20050014769A1, “Use of endothelin receptor antogonists for the treatment of tumour diseases” (priority 2001, published 2005).
Square brackets hold non-standard residues; d marks the D form. Peptide text beside a SMILES is read from it.

Legend:
[1] = test system: prostate cancer cell lines; conditions: in vitro; Nelson J B et al. Cancer Research 56, 663-668, 1996
[2] = test system: intestinal cancer cell lines; conditions: Ali H et al. Gut 47, 685-688, 2000
metastasis formation = conditions: rat metastasis model; Asham E et al. British Journal of Cancer 81/11, 2001
[3] = test system: primary ovarian carcinoma cells; conditions: Bagnato A et al. Cancer Res 59, 720-727, 1999
ovarian carcinoma cells = conditions: Del Bufalo D et al., Molecular Pharmacology 61/3, 2002
[4] = test system: HPV positive cervical carcinomas; conditions: cervical carcinoma; Venuti A et al., FASEB 14/14, 2279-2283, 2000
melanoma cells = conditions: in vitro; AACR Abstract No. 358, 2002
[5] = test system: pancreas tumour cells (ASPC-1); conditions: in vivo; AACR Abstract No. 3365, 2000

In the case of `CCCCN(CCCC)C(=O)CN1C[C@H](c2ccc3c(c2)OCO3)[C@@H](C(=O)O)[C@@H]1c1ccc(OC)cc1` [Atrasentan], the “growth of various prostate cancer cell lines” value [1] is given as “inhibits the growth”.

For `CC(C)C[C@@H]1NC(=O)[C@@H](C(C)C)NC(=O)[C@@H]2CCCN2C(=O)[C@@H](CC(=O)O)NC(=O)[C@@H](Cc2c[nH]c3ccccc23)NC1=O` [BQ123] (cyclo(L[dW][dD]P[dV])), the “ET-1 stimulated proliferation of intestinal cancer cell lines” value [2] is listed as “can be inhibited”, the metastasis formation (metastasis formation) is listed as “inhibits metastasis formation” and the “proliferation of tumour cells” value [3] is listed as “inhibits the proliferation”. For the same compound, the “ET-1 protection against apoptosis” value (ovarian carcinoma cells) was “can be eliminated” and the “ET-1 stimulated proliferation of tumour cells” value [4] was “can be inhibited”.

For `COc1ccccc1Oc1c(NS(=O)(=O)c2ccc(C(C)(C)C)cc2)nc(-c2ncccn2)nc1OCCO` [Bosetan], the “proliferation of melanoma cells” value (melanoma cells) is listed as “inhibits the proliferation”.

In the case of `COc1ccccc1Oc1c(NS(=O)(=O)c2ccc(C(C)C)cn2)nc(-c2ccnc(-c3nnn[nH]3)c2)nc1OCCO` [Ro 61-612/001], the “proliferation of pancreas tumour cells (ASPC-1)” value [5] is given as “inhibits the proliferation”.
